Entries after “also recorded” stand apart in the source; their conditions may differ. Ends that are not written are not given here.
Key:
Type in all cases: cell-based, mouse
[1] = system: TLR4 signaling (LPS-induced IL-1β, MIP-1β, IFN-β, RANTES mRNA); assay: LPS-induced gene expression in primary murine macrophages, real-time PCR; settings: for effect on induction of IL1-β and IFN-β mRNA (cytokine induction) by LPS: 30 min preincubation with peptide; for inhibitory effect on LPS-induced expression of IL-1β, MIP-1β, IFN-β and RANTES mRNA: 40 μM BP, 1 h preincubation, 10 ng/ml LPS, mRNA 1 h after LPS
Description: FIG. 1. Effect of blocking peptides on the cytokine induction by LPS. Thioglycollate-elicited primary murine macrophages were preincubated in the presence of 40 μMof BP for one hour before stimulation with 10 ng/ml of LPS. (A) Quantitative real-time PCR analysis of gene expression. (B) Secretion of IL-1β and IL-6. Concentration of the cytokines was measured after overnight incubation of the cells in the presence of LPS and the peptides. (C) Sensitivity of the LPS-stimulated expression of IFN-β and IL-1β mRNA to varying concentrations of TRAM and MyD88 BP. Total mRNA was isolated 1 hour after LPS stimulation (A and C). *p<0.05; **p<0.01.
FIG. 6. Effect of mutant TRAM BB loop peptides on LPS-induced activation of IL1-β and IFN-β mRNA. Details of the experiments are as described in the legend for FIG. 1, except for the cells were preincubated with peptides only for 30 minutes.
C3H/OuJ mice were purchased from the Jackson Laboratory (Bar Harbor, Me.). Thioglycollate-elicited peritoneal macrophages were harvested and cultured in the presence of E. coli K235 LPS or Pam3Cys as described previously (Salkowski et al., 1999, J. Immunol. 164, 1529).
(§1) Total cellular RNA was extracted from macrophage cultures as described elsewhere and reversed transcribed using AMV Reverse Transcriptase (Promega, Madison, Wis.) and poly-T priming as recommended by the manufacturer. The resulting cDNA was quantified by real time PCR using SYBR Green PCR Master Mix (Applied Biosystems) and ABI Prism 7900HT cycler. Primers for detection of IL-1β, IFN-β, MIP-1β, […]RANTES, and HPRT mRNAs were designed using the Primer Express 2.0 program (Applied Biosystems). Relative gene expression was calculated using ΔCt method with HPRT as a housekeeping gene (1.8̂(CtHPRT−CtGene)) Statistical analysis was performed by one way ANOVA with repeated measures, followed by Dunnett's multiple comparison post hoc test with p≦0.05 chosen as the level of significance.
Mice with targeted mutations in MyD88 (Kawai et al., 2001, supra; Toshchakov et al., 2002, supra) or TIRAP (Yamamoto et al., 2002, Nature 420, 324) retain the capacity to signal through the MyD88-independent pathway. […] Therefore, the first question we sought to address experimentally is whether interactions of the BB-loops of the TIR domains of these adapters affect protein interactions leading to gene expression. To this end, we designed cell permeable peptides whose sequences correspond to the BB-loops of each adapter molecule and measured the ability of each BP to interfere with the induction of immediate response genes induced via MyD88-dependent and independent pathways. […] All BB-loop-containing peptides exerted an inhibitory effect on LPS-induced expression of MyD88-dependent IL-1β and […], as well as MyD88-independent IFN-β and RANTES mRNA, as measured by real-time PCR (FIG. 1A).

[2] = system: TLR4 signaling (LPS-induced phosphorylation of ERK, JNK, p38); assay: LPS-stimulated activation of MAPKs (pERK, pJNK, pP38), Western blot; settings: for effect on LPS-induced activation of ERK, cells preincubated with peptides only for 30 minutes: FIG. 5 and 7, 30 min preincubation; for effect on LPS-induced activation of ERK, cells preincubated with peptides only for 30 minutes / inhibition of LPS-induced activation of ERK / effect on LPS-induced activation (phosphorylation) of MAPKs (ERK, JNK): LPS 10 ng/ml; for inhibition of LPS-induced activation of ERK / effect on LPS-induced activation of p38: 40 μM BP; for effect on LPS-induced activation (phosphorylation) of MAPKs (ERK, JNK): 40 μM, 1 h preincubation; for inhibition of phosphorylation of ERK whether or not 100-fold excess LPS was used: peptide increased from 10 μM to 40 μM, LPS 10 ng/nl or 1 μg/ml
Description: (§2) FIG. 2. Effect of blocking peptides on the LPS-stimulated activation of MAPKs and Tyr701 STAT-1. Ten μg of total protein was loaded per lane. A representative blot of three separate experiments is shown. Other details are given in the Materials and Methods section and legend for FIG. 1.
(§3) FIG. 4. Comparative effect of BPs on TLR2-vs. TLR4-mediated activation of MAPKs (A) and IL-1β mRNA expression (B). For Western blot analysis, 4.5 x10^6 primary macrophages were preincubated without or with 40 μM BP and stimulated for 30 min with LPS (10 ng/ml) or Pam3Cys (P3C; 150 ng/ml). The results shown are a representative blot of three separate experiments. Experimental details for FIG. 4B are the same as reported in the legend to FIG. 1A.
FIG. 5. Effect of mutated TRAM BB loop peptides on LPS-induced activation of ERK. Details of the experiment are as in legend for FIG. 4, except for the cells were preincubated with peptides only for 30 minutes.
(§4) SDS-PAGE and Western blot analysis were performed as described previously (Medvedev et al., 2001, J. Immunol. 167, 2257) with minor modifications. Antibodies for detection of activated MAPKs (pERK, pJNK and pP38) were purchased from Cell Signaling Technology (Beverly, Mass.). IRF-1 was detected using a rabbit polyclonal antibody from Santa-Cruz (Santa Cruz, Calif.). Antibody for detection of tyrosine-701 phosphorylated STAT1 was purchased from Zymed Laboratories (San Francisco, Calif.).
Using antibodies specific for the phosphorylated (activated) forms of JNK, ERK, and p38, we next sought to examine the effect of BB-loop-containing inhibitory peptides on LPS-stimulated activation of MAPKs. LPS induces quick and transient activation of MAPKs in primary macrophages (FIG. 2A) that was not affected by the addition of CP. […] The TIRAP BP was the weakest BP; all MAPKs were activated in the presence of it, although to a lesser extent when compared to CP.

[3] = system: TLR2 signaling (Pam3Cys-induced phosphorylation of ERK, JNK, p38); assay: Pam3Cys-induced activation of MAPKs, Western blot; settings: for effect on P3C-induced activation (phosphorylation) of ERK / effect on P3C-induced activation of p38: 40 μM; for effect on P3C-induced activation (phosphorylation) of ERK: P3C 150 ng/ml
Description: as §3, §4
Apart from the use of a CP, we sought to analyze further the specificity of the inhibitory effects of BB-loop peptides on TLR signaling. Therefore, we also tested the effect of the peptides on signal transduction elicited from TLR2.

[4] = system: TLR2 signaling (Pam3Cys-induced IL-1β mRNA); assay: Pam3Cys-induced cytokine mRNA expression, real-time PCR
Description: as §3, §1
Similar to their effect on activation of MAPKs, BPs were much weaker inhibitors with respect to Pam3Cys- vs. LPS-induced expression of IL-1β mRNA.

[5] = system: TLR4 signaling (IRF-3 dimerization); assay: LPS-induced dimerization of IRF-3, native PAGE; settings: 100 ng/ml LPS, 1.5 hr
Description: (§5) FIG. 3. Effect of blocking peptides on activation of IRF-3 and IRF-1. […] Primary mouse macrophages were stimulated with 100 ng/ml of LPS. Seventeen μg of total protein was loaded per lane of the native gel. Other details are as described in the legend for FIG. 1.
Native PAGE for detection of IRF-3 activation was performed with minor modifications (Iwamura et al., 2001, Genes Cells 6, 375). One×10^7 thioglycollate-elicited cells were plated into a 6 cm dish and washed with PBS to remove non-adherent cells. Primary macrophages were stimulated with 100 ng/ml of LPS for 1.5 hr and lysed in buffer containing 50 mM TRIS-HCl pH 7.5, 150 mM NaCl, 1 mM EDTA, 1% NP-40, 1 mM sodium orthovanadate and 1× Complete protease inhibitor cocktail (Roche, Mannheim, Germany). Lysates were mixed with native lysis buffer (Bio-Rad, Hercules, Calif.) supplemented with 1% deoxycholate. Fifteen to 20 μg protein per lane was electrophoresed on a non-reducing gel and immunoblotted. IRF-3 dimers and monomers were detected using rabbit anti-IRF-3 antibody (Zymed Laboratories) by Western analysis.
Interferon Regulatory Factors (IRFs) were first identified as important transcriptional mediators of the antiviral immune response (reviewed in Taniguchi et al., 2001, Annu. Rev. Immunol. 19, 623). Later, it was recognized that this family of transcription factors plays an essential role in signal transduction mediated by different TLRs. IRF-1 is regulated transcriptionally by signaling from different TLRs, as well as by cytokines induced by TLR engagement (e.g., IL-1, TNF, and IFN-β) (Fujita et al., 1989, Proc. Natl. Acad. Sci. USA 86, 9936). In contrast, IRF-3 is constitutively expressed in many cell types (Au et al., 1995, Proc. Natl. Acad. Sci. USA 92, 11675). Upon stimulation through TLR4 or TLR3, IRF-3 is phosphorylated at multiple sites in its C-terminus, and this modification enables it to dimerize and translocate to the nucleus where it targets IRF-3-responsive genes (Kawai et al., 2001, supra; Lin et al., 1999, Mol. Cell. Biol. 19, 2465).

[6] = system: TLR4 signaling (IRF-1 protein); assay: LPS-induced upregulation of IRF-1 protein, SDS-PAGE/Western; settings: 100 ng/ml LPS, 1.5 h
Description: as §5, §4
Importantly, MyD88 knockout macrophages are capable of inducing IRF-1 mRNA (Yamamoto et al., 2003, supra).

[7] = system: TLR4 signaling (LPS-induced STAT-1 phosphorylation); assay: LPS-induced phosphorylation of STAT-1, Western blot; settings: 40 μM BP
Description: as §2, §4

[8] = listed as Antennapedia DD loop peptide

| Sequence | effect on induction of IL1-β and IFN-β mRNA (cytokine induction) by LPS [1] | effect on P3C-induced cytokine induction [4] | effect on LPS-induced activation (phosphorylation) of MAPKs (ERK, JNK) [2] | inhibition of LPS-induced dimerization of IRF-3 [5] | effect on LPS-induced upregulation of IRF-1 protein [6] | inhibition of LPS-induced Tyr701 phosphorylation of STAT-1 [7] | inhibitory effect on LPS-induced expression of IL-1β, MIP-1β, IFN-β and RANTES mRNA [1] | inhibition of phosphorylation of ERK whether or not 100-fold excess LPS was used [2] | also measured |
| --- | --- | --- | --- | --- | --- | --- | --- | --- | --- |
| IVFAAMPCGRLHLQ [E/A mutant] | did not affect considerably inhibitory capacity | – | – | – | – | – | – | – | effect on LPS-induced activation of ERK, cells preincubated with peptides only for 30 minutes [2]: did not affect considerably inhibitory capacity |
| KYKAMKKDFPSILR [MyD88 DD loop peptide] | not inhibitory | not inhibitory | – | – | – | – | – | – | effect on LPS-induced activation of ERK, cells preincubated with peptides only for 30 minutes [2]: not inhibitory; effect on LPS-induced activation of ERK, cells preincubated with peptides only for 30 minutes [2, 8]: does not inhibit; effect on P3C-induced activation (phosphorylation) of ERK [3]: not inhibitory; effect on P3C-induced activation (phosphorylation) of ERK [3, 8]: does not inhibit |
| RQIKIWFONRRMKWKKFCEEFQVPGRGELH (RQIKIWFQNRRMKWKKFCEEFQVPGRGELH; TRIF blocking peptide) [TRIF-BP] | – | – | strongly inhibited | significantly inhibited | intermediate efficacy | strongly inhibited | – | – | inhibition of LPS-induced activation of ERK [2]: incomplete |
| RQIKIWFQNRRMKWKKIVFAEMPCGRLHLQ [TRAM-BP] | – | – | strongly blocked | significantly inhibited | strongest inhibitors | strongly inhibited | strongest | effectively inhibited | – |
| RQIKIWFQNRRMKWKKLHERNFVPGKSIVE (TLR1/6 blocking peptide) [TLR1/6-BP] | – | – | affected neither | – | – | – | – | – | inhibition of Pam3Cys-induced phosphorylation of MAPKs ([3]; 40 μM BP, Pam3Cys 150 ng/ml, 30 min): affected neither |
| RQIKIWFQNRRMKWKKLHKRDFVPGKWIID [TLR2-BP] | inhibitory | inhibitory | – | – | – | – | – | effectively inhibited | effect on LPS-induced activation of p38 [2]: did not inhibit; inhibition of LPS-induced activation of ERK ([2]; listed as TLR2 BB peptide): potent inhibitors; also recorded: inhibit; effect on P3C-induced activation of p38 [3]: did not inhibit; effect on P3C-induced activation (phosphorylation) of ERK ([3]; listed as TLR2 BB peptide): diminished and delayed; also recorded: to some extent |
| RQIKIWFQNRRMKWKKLHYRDFIPGVAIAA [TLR4-BP] | inhibitory | inhibitory | – | – | – | – | – | effectively inhibited | effect on LPS-induced activation of p38 [2]: did not inhibit; inhibition of LPS-induced activation of ERK ([2]; listed as TLR4 BB peptide): potent inhibitors; also recorded: inhibit; effect on P3C-induced activation of p38 [3]: did not inhibit; effect on P3C-induced activation (phosphorylation) of ERK ([3]; listed as TLR4 BB peptide): to a lesser extend; also recorded: to some extent |
| RQIKIWFQNRRMKWKKLQLRDAAPGGAIVS (TIRAP blocking peptide) [TIRAP-BP] | – | – | weakest BP | inhibition was not as complete | weakest | did not completely block | consistently weakest | – | – |
| RQIKIWFQNRRMKWKKSLHGRGDPMEAFII (Control peptide - BLAST generated) [reference compound] | – | – | not affected | – | strong upregulation | – | not significantly affected | – | effect on Pam3Cys-induced expression of IL-1β mRNA ([4]; 40 μM, Pam3Cys): not significantly affected |
